Results: patent publication US20110178131A1, “Compounds Which Have Activity At M1 Receptor And Their Uses In Medicine” (priority 2008, published 2011)
Counter-ions that a name gives are not always drawn.

Biological target: T1, human muscarinic M1 receptors (Homo sapiens, UniProt P11229)
T1 construct: expressed in transfected cells
T1 sequence (P11229 1-460): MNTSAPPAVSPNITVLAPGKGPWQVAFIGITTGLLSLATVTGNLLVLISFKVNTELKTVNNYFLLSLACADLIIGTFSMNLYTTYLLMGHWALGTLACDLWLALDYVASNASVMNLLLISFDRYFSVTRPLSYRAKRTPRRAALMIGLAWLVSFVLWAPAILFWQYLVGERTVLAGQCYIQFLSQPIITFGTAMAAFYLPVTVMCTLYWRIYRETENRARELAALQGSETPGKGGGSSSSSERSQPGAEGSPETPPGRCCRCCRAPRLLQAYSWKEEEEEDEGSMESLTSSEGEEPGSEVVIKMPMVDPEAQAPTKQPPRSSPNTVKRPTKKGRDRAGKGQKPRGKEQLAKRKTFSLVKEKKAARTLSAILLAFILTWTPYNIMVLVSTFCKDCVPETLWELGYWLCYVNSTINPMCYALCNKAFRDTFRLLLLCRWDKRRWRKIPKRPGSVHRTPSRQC
Experiment: FLIPR experiments on M1 receptors (calcium response, agonism)
Assay type: cell-based
Conditions: CHO-M1 cells
Method: FLIPR Experiments on M1 Receptors to Determine a Agonist/Antagonist Potency
Compounds of the invention may be characterized in a functional assay to determine their ability to activate the intracellular calcium pathway in CHO cells with stable expression of human muscarinic M1 receptors using FLIPR (Fluorometric Imaging Plate Reader) technology. Briefly, CHO-M1 cells were plated (15,000/well) and allowed to grow overnight at 37 degrees. Media were removed and 30 μL loading buffer (HBSS with 2.5 mM probenicid, 2 μM Fluo-4, 500 μM Brilliant Black, pH 7.4) was added. After incubation at 37 degrees for 90 minutes, 10 μL of the assay buffer (HBSS with 2.5 mM probenecid, pH 7.4) containing test compounds was added to each well on the FLIPR instrument. Calcium response was monitored to determine agonism. […] Calcium response was then monitored again to determine compound's antagonism to acetylcholine. […] Results were imported into ActivityBase data analysis suite (ID Business Solution Inc., Parsippany, N.J.) where the curves were analysed by non-linear curve fitting and the resulting pEC50/fpKi were calculated. The maximum asymptotes of agonist compounds were calculated as percentage of maximum FLIPR response induced by carbamoylcholine chloride added as control on the same compound plates.

Structure (SMILES): COCC1CCC(N2CCC(n3c(=O)oc4ccc(C#N)cc43)CC2)CC1 (mixture of isomers) [Example 1, 3-(1-{4-[(Methyloxy)methyl]cyclohexyl}-4-piperidinyl)-2-oxo-2,3-dihydro-1,3-benzoxazole-5-carbonitrile hydrochloride]
- EC50 (FLIPR calcium response, agonism, read-out: average pEC50 at the muscarinic M1 receptor (converted)): < 3.16 µM
- Emax (maximum asymptote as percentage of maximum FLIPR response induced by carbamoylcholine chloride, read-out: intrinsic activity): > 50%
